According to patent US9714260B2, “Asymmetrical Si rhodamine and rhodol synthesis” (THE UNIVERSITY OF TOKYO, priority 2013, dated 2017):

Assays:
[1] = Absorbance and fluorescence profiles of Compounds 1-4 in pH 7.4 sodium phosphate; format: physicochemical; conditions: pH 7.4 sodium phosphate buffer solution; for Absmax / Emmax / ε: 0.1% DMSO; for Φfl: cresyl violet in methanol as fluorescence reference
Procedure: Absorbance and fluorescence profiles of 2-MeSiR620 (Compound 1) obtained in step (f) and 2-MeSiR620-a1 (Compound 2) obtained in step (i) were measured. Measurements were carried out in an aqueous solution of 0.1M sodium phosphate having a pH 7.4 and containing 0.1% DMSO. The wavelength of the excitation light in the fluorescence profile measurement was 620 nm for 2-MeSiR620 and 635 nm for 2-MeSiR620-a1.
The absorbance and fluorescence spectra of 2-MeSiR630 (Compound 3) synthesized in step (b) and 2-MeSiR630-a1 (Compound 4) synthesized in step (d) were measured. Measurements were carried out in an aqueous solution of 0.1 sodium phosphate having a pH 7.4 and containing 0.1% DMSO. The excitation light in the fluorescence spectrum measurement was 633 nm for 2-MeSiR630 and 648 nm for 2-MeSiR630-a1.

[2] = Optical characteristics of Compound 5 in pH 7.4 sodium phosphate; format: physicochemical; conditions: 0.1 sodium phosphate pH 7.4, 0.3% DMSO
Procedure: The fluorescence wavelength was 665 nm and the wavelength of the excitation light was 637 nm. The measurement was carried out in an aqueous solution of 0.1 sodium phosphate having a pH 7.4 and containing 0.3% DMSO. Cy 5.5 (ΦFl=0.23) in water was used as the fluorescence reference to determine the fluorescence quantum yield.

[3] = Optical characteristics of dyes in phosphate buffered saline of pH 7.4; format: physicochemical
[4] = Fluorescence quantum yield of Compound 5 in various solvents; format: physicochemical
[5] = Absorbance and fluorescence of Compound 6 in various solvents; format: physicochemical
Procedure: Next, the absorbance and fluorescence spectra of Ac-IndoSiR (Compound 6) in various solvents were measured. […] The excitation wavelength was 540 nm. The maximum absorbance fluorescence wavelength, molar absorbance coefficient, and fluorescence quantum yield of Compound 6 in various solvents are shown in Table 5. The fluorescence quantum yield (ΦFl=0.44; determined using an absolute fluorescence quantum yield measurement device) of Compound 6 in chloroform was used as the fluorescence reference to determine the fluorescence quantum yield in various solvents.

[6] = Optical characteristics / pH profile of Si-Rhodol (Compound 7); format: physicochemical
Procedure: The pH profile of the absorbance and fluorescence spectra of Si-Rhodol (Compound 7) was examined. Measurement was carried out at various pH in 0.1M sodium phosphate solution containing 1% DMSO. The excitation wavelengths were 507 nm (FIG. 13) and 584 nm (FIG. 14).

[7] = Optical characteristics / pH profile of O-Me-Si-Rhodol (Compound 8); format: physicochemical
Procedure: The pH profile of the absorbance and fluorescence spectra of O-Me-Si-Rhodol (Compound 8) was examined. Measurement was carried out at various pH levels in 0.1M sodium phosphate solution containing 10% DMSO. The excitation wavelength was 503 nm.

[8] = Optical characteristics / pH profile of N-AcSi-Rhodol (Compound 9); format: physicochemical
Procedure: Measurement was carried out at various pH in 0.1M sodium phosphate solution containing 10% DMSO. The excitation wavelength was 503 nm.

[9] = Reactivity and selectivity of Compound 10 toward active-oxygen species
Procedure: Next, an analysis was carried out using the HPLC of a reaction induced by an active-oxygen-species. […] A sample was subjected to HPLC linear gradient elution (eluate: A/B=60/40—10 minutes—0/100; flow rate=1.0 mL/minute). Next, the selectivity of active-oxygen species of compound 10 was examined. The conditions of various active-oxygen species were as follows. H2O2: […] ONOO^−: […] O2^−: […] Hydroxy radical: H2O2 (final 1 mM) and FeClO4 (final 100 μM) were added.

HL60 cells = test: Cell-imaging experiment using HL60 cells; format: cell-based; conditions: 1 μM probe, 1 mM H2O2 stimulation, 45 minutes
Procedure: HL60 cells were cultured. […] The fluorescence image was observed thereafter.

[10] = Optical characteristics of Compound 10 and predicted compound after reaction with active oxygen; format: physicochemical; conditions: 1 μM in PBS (pH 7.4), 0.1% DMF
Procedure: The absorbance and fluorescence spectra (left side of FIG. 19) of 1 μM of compound 10 in PBS (pH 7.4) containing 0.1% DMF as a cosolvent, the absorbance and fluorescence spectra (right side of FIG. 19) of the compound predicted to be generated following a reaction of compound 10 and 1 μM active oxygen, and the optical characteristics of each compound were measured (Table 9).

rat liver microsomes = test: In vitro experiment using rat liver microsomes (hypoxia vs normal oxygen); format: biochemical; conditions: 1 μM compound, 226 μg rat liver microsomes, 50 μM NADPH; ex 640 nm, em 660 nm
Text: The excitation wavelength was 640 nm and the fluorescence wavelength was 660 nm. In FIG. 26, Hyp is the measurement result for hypoxia and Nor is the measurement result for normal oxygen level.

[11] = in water; cited from earlier work
[12] = in methanol; cited from earlier work
[13] = 0.1M sodium phosphate, 10% DMSO
[14] = 0.1M sodium phosphate, 10% DMSO, excitation 503 nm

## 2-MeSiR620 [Compound 1]
[1]
  Absmax: 620 nm
  Emmax: 638 nm
  ε: 96,000 M^−1cm^−1
  Φfl: 0.21

## CNc1ccc2c(c1)[Si](C)(C)C1=CC(=[N+](C)C)C=CC1=C2c1ccccc1C [Compound 3, 2-MeSiR630]
[1]
  Absmax: 633 nm
  Emmax: 649 nm
  ε: 120,000 M^−1cm^−1
  Φfl: 0.11

## Cc1ccccc1C1=C2C=CC(=[N+](C)C)C=C2[Si](C)(C)c2cc(N(C)CCCC(=O)O)ccc21 [Compound 4, 2-MeSiR630-a1]
[1]
  Absmax: 648 nm
  Emmax: 666 nm
  ε: 140,000 M^−1cm^−1
  Φfl: 0.30

## Cc1ccccc1C1=c2cc3c(cc2[Si](C)(C)c2cc(N)ccc21)=[N+](C)CC3 [Compound 5, 2MeIndoSiR]
[2]
  ε: 54000 M⁻¹ cm⁻¹
  λem: 665 nm
  λex: 641 nm
[2]; Cy 5.5 in water as reference
  Φfl: 0.18
[3]
  Φn (absolute fluorescence quantum yield measured using integrating spheres): 0.14
  λabs. max: 637 nm
  λfl. max: 664 nm
[4]; 20% FBS
  Fluorescence quantum yield ΦF1: 0.36
[4]; Acetone
  Fluorescence quantum yield ΦF1: 0.39
[4]; CH3CN
  Fluorescence quantum yield ΦF1: 0.42
[4]; CHCl3
  Fluorescence quantum yield ΦF1: 0.89
[4]; DMF
  Fluorescence quantum yield ΦF1: 0.39
[4]; DMSO
  Fluorescence quantum yield ΦF1: 0.35
[4]; FBS
  Fluorescence quantum yield ΦF1: 0.35
[4]; MeOH
  Fluorescence quantum yield ΦF1: 0.46

## CC(=O)Nc1ccc2c(c1)[Si](C)(C)c1cc3c(cc1=C2c1ccccc1C)CC[N+]=3C [Compound 6, Ac-IndoSiR]
[5]; Acetone
  Absmax: 532 nm
  Emmax: 641 nm
  ΦFl: 0.15
  ε: 27,000 M^−1cm^−1
[5]; Benzene
  Absmax: 644 nm
  Emmax: 665 nm
  ΦFl: 0.26
  ε: 34,000 M^−1cm^−1
[5]; CH2Cl2
  Absmax: 552 nm
  Emmax: 641 nm
  ΦFl: 0.27
  ε: 33,000 M^−1cm^−1
[5]; CH3CN
  Absmax: 529 nm
  Emmax: 636 nm
  ΦFl: 0.16
  ε: 29,000 M^−1cm^−1
[5]; CHCl3
  Absmax: 623 nm
  Emmax: 652 nm
  ε: 36,000 M^−1cm^−1
[5]; CHCl3, absolute fluorescence quantum yield measurement device
  ΦFl: 0.44
[5]; DMF
  Absmax: 536 nm
  Emmax: 645 nm
  ΦFl: 0.19
  ε: 9,000 M^−1cm^−1
[5]; DMSO
  Absmax: 534 nm
  Emmax: 651 nm
  ΦFl: 0.12
  ε: 30,000 M^−1cm^−1
[5]; MeOH
  Absmax: 526 nm
  Emmax: 637 nm
  ΦFl: 0.10
  ε: 27,000 M^−1cm^−1
[5]; NaPi buffer (pH 7.4)
  Absmax: 500 nm
  Emmax: 630 nm
  ΦFl: 0.06
  ε: 29,000 M^−1cm^−1
[5]; THF
  Absmax: 559 nm
  Emmax: 654 nm
  ΦFl: 0.18
  ε: 21,000 M^−1cm^−1
[5]; Toluene
  Absmax: 644 nm
  Emmax: 665 nm
  ΦFl: 0.31
  ε: 32,000 M^−1cm^−1

## Cc1ccccc1C1=C2C=CC(=O)C=C2[Si](C)(C)c2cc(N)ccc21 [Compound 7, Si-Rhodol]
[6]; 0.1M sodium phosphate, 1% DMSO
  ε: 40,000 M^−1cm^−1
  λem: 605 nm
[6]; FIG. 14, excitation wavelength 584 nm
  absorption maximum (FIG. 14): ~600 nm
[6]; pH: 3.0
  Φfl: 0.28 (pH: 3.0)
  λabs: 507 (pH: 3.0) nm
[6]; pH: 7.4
  Φfl: 0.56 (pH: 7.4)
  λabs: 584 (pH: 7.4) nm
[6]; pH: 7.4, listed as Si-Rhodol
  λabs: ~580 nm

## COc1ccc2c(c1)[Si](C)(C)C1=CC(=N)C=CC1=C2c1ccccc1C [Compound 8, O-MeSi-Rhodol]
[7]; [13]
  λabs: 503 nm
[7]; [14]
  λem: 580 nm
[7]; 0.1M sodium phosphate, 10% DMSO, listed as O-MeSi-Rhodol
  λabs: ~500 nm
[7]; FIG. 16
  absorption maximum (FIG. 16): ~600 nm
[7]; pH: 3.0
  ΦFL: 0.24 (pH: 3.0)
[7]; pH: 7.4
  ΦFL: 0.18 (pH: 7.4)

## CC(=O)Nc1ccc2c(c1)[Si](C)(C)C1=CC(=O)C=CC1=C2c1ccccc1C [Compound 9, N-AcSi-Rhodol]
[8]; [13]
  λabs: 455 nm
[8]; [14]
  λem: 590 nm
[8]; 0.1M sodium phosphate, 10% DMSO, listed as N-AcSi-Rhodol
  λabs: ~450 nm
[8]; pH: 7.4
  ΦFL: 0.17 (pH: 7.4)
[8]; pH: 10.0
  ε: 7000 (pH: 10.0) M^−1cm^−1

## CC/[N+](=C1\C=CC2=C(c3ccccc3C)c3cc4c(cc3[Si](C)(C)C2=C1)N(C)CC4)c1ccc(O)cc1 [Compound 10, 2MeIndo-N-ethyl-phenol-SiR]
[9]; H2O2, −OCl, ONOO−, O2−, hydroxy radical
  selectivity of active-oxygen species: reacted selectively with ^−OCl and ONOO^−
[9]; −OCl
  reaction with −OCl (HPLC, ESI-MS analysis): produce the predicted reactant
[9]; −OCl and ONOO−
  increase in fluorescence after reaction with active-oxygen species: 100 times
HL60 cells
  increase in fluorescence inside cells relative to no stimulation: about four
[10]
  Absmax: 670 nm

## Cc1ccccc1C1=c2cc3c(cc2[Si](C)(C)c2cc(/N=N/c4ccc(N(C)C)cc4)ccc21)=[N+](C)CC3 [Compound 11, 2MeazoSiR650]
[3]
  Φn (absolute fluorescence quantum yield measured using integrating spheres): <0.001
  λabs. max: 590 nm
Rat liver microsomes
  change in fluorescence intensity in a hypoxic environment: dramatic increase in fluorescence intensity

## Cc1cccc(C)c1C1=c2cc3c(cc2[Si](C)(C)c2cc(N)ccc21)=[N+](C)CC3 [Compound 13, diMeSiR650]
[3]
  Φn (absolute fluorescence quantum yield measured using integrating spheres): 0.15
  λabs. max: 637 nm
  λfl. max: 670 nm

## Cc1cccc(C)c1C1=c2cc3c(cc2[Si](C)(C)c2cc(/N=N/c4ccc(N(C)C)cc4)ccc21)=[N+](C)CC3 [Compound 14, diMeazoSiR650]
[3]
  Φn (absolute fluorescence quantum yield measured using integrating spheres): 0.002
  λabs. max: 587 nm
Rat liver microsomes
  change in fluorescence intensity in a hypoxic environment: dramatic increase in fluorescence intensity

## CCN1\C(=C/C=C/C=C/C2=[N+](CCCCCC(=O)O)c3ccc4c(S(=O)(=O)O)cc(S(=O)(=O)O)cc4c3C2(C)C)C(C)(C)c2c1ccc1c(S(=O)(=O)[O-])cc(S(=O)(=O)O)cc21 [Cy 5.5]
[11]
  ΦFl of fluorescence reference: 0.23

## Cresyl violet
[12]
  Φfl of fluorescence reference: ^bCresyl violet in methanol (Φfl = 0.54) was used as the fluorescence reference
